# Test results from patent publication US7326710B2, “Aralkyl formyl-alkyl piperazine derivatives and their uses as a cerebral nerve protective agent” (Shanghai Institute of Pharmaceutical Industry, priority 2002, dated 2008).
# Where two headings read alike, the source gives them in different places. Marks after values point to notes of the source that are not given here.
# Assays:
# Acute toxicity = details: mouse, in vivo, mice, read-out: LD50 (95% confidence limit)
# [1] = system: focal cerebral ischemia in rats; assay: Focal cerebral infarction, electrical coagulation to occlude MCA; type: in vivo; design: The neurological deficit score After the operation / The neurological deficit score 24 h: scale not given here
# Protocol: a. The Focal Cerebral-Infarction of Using Electrical Coagulation to Occlude MCA:
# For the 5 mg/kg group, the percentage of the rat's infarct size was decreased, but the difference is not significant (p=0.098). The effect is not significant for the Nimodipine mg/kg.
# [2] = system: focal cerebral ischemia in rats; assay: Temporary occlusion of the right MCA in rats caused by suture; type: in vivo; details: for Percent of volume (Means ± SEM) / Percent of infarct (%) (Means ± SEM): rats; for Percent of volume (Means ± SEM): length of ischemia 6 hr
# Text: b. Temporary occlusion of the right MCA in rats caused by suture.
# rodent = assay: Rodent microkernel experiment; details: in vivo
# Text: The rodent microkernel experiment of IV-23 was negative.
# [3] = system: focal cerebral ischemia in rats; assay: Focal brain injury, occlusion of MCA induced by photochemical reaction; type: in vivo
# Protocol: a. Focal brain injury caused by photochemical induction of occlusion of the artery:
# The percentage of infarction was lowered by 52% at 24 hours after operation.
# [4] = system: focal cerebral ischemia in rats; assay: Focal cerebral infarction, electrical coagulation to occlude MCA; type: in vivo; design: The neurological deficit score After the operation / The neurological deficit score 24 h: scale not given here; remark: listed apart in the source
# NMDA receptor [5] = assay: Whole-cell patch clamp, current induced by NMDA in isolated rat CA1 pyramidal neuron; type: cell-based; details: NMDA 100 μm, n=4, read-out: IC50, inhibition of the electric current induced by NMDA
# Protocol: Methods: The whole-cell patch-clamp technique. Separate the rat's hippocampi, slash the brain piece into 500 μm thick. Get the CA1 area of hippocampi, put it into artificial cerebral spinal fluid (ACSF) to incubate for more than 1 hour. Then the solution is oxygen saturated. After the incubation of the brain piece, put it into ACSF with protease XIII (1 mg/ml) for 5 minutes. Using trypsin inhibitor type II-S (3 mg/ml) to terminate the protease digestion, and then using test tube to break the brain piece to obtain free cells, let it stand for a while and then start the experiment.
# The electro-physiological experiment used the technique of whole-cell patch-clamp. The amplifier in the experiment is Axon-200A patch-clamp amplifier, with the DigiData-1200A as a sampling port. The software used is AxoScope Version 1.0. The experiment uses as a standard the electric current generated by the whole-cell. The effect of various samples on the electric current was observed. IC50 was determined by proportion of different concentrations to the electric current of NMDA.
# mammalian cultural cell = assay: Chromosome aberration trial in mammalian cultural cell; type: cell-based
# Text: The chromosome aberration trial in mammalian cultural cell was negative.
# NMDA receptor [6] = assay: Maximum contraction of isolated guinea pig longitudinal ileum muscle preparations induced by L-Glu; details: compound 10^−5M; contraction induced by L-Glu
# Text: According to the literature (Luzzi, Br J Pharmacol, 95:1271, 1988), maximum contraction of isolated longitudinal ileomuscle preparations of guinea pig induced by L-Glu, were used to examine the activities of the compounds on the NMDA receptor.
# cerebral anoxia in mice = assay: Anoxic anoxia experiment in mice (closed wide-mouth bottles with soda lime); type: in vivo, Male Kunming mice
# Protocol: Methods: Male Kunming mice were divided into 8 groups, 12 mice for each group. One group is injected subcutaneously with saline ([…], sc), other groups with ACEA1021 (NMDA receptor antagonist under clinical trial) or IV-23. 30 minutes after administration, the animals were put separately into wide-mouth bottles with soda lime, which more quickly closed. The survival time for each mice was recorded, and the group average of survival time was calculated and compared with the saline group.
# [7] = system: global cerebral ischemia-reperfusion injury in rats; assay: Global cerebral ischemia-reperfusion in rats, four arteries reversible occlusion; type: in vivo
# Text: The effect of IV-23 on cerebral ischemia-reperfusion in rats was studied using four arteries reversible occlusion by measuring the recovering time of the electroencephalogram and the righting reflex (a short time indicates a strong effect).
# [8] = system: primary culture of rat cerebral cortical neuronal cells; assay: Protective effect on neurons damaged with NMDA, LDH activity; type: cell-based; details: NMDA 1 mmol/L
# Text: Primary culture of rat cerebral cortical neuronal cells were used. […] This is further evidence that IV-23 is a new NMDA receptor antagonist, and has anti-cerebral ischemic injury functions as well.
# Ames test = type: cell-based
# Text: The Ames test of IV-23 was negative.
# [9] = system: rats platelet aggregation induced by ADP; assay: Platelet aggregation induced by ADP; type: cell-based; details: concentration 1×10^−4M
# [10] = system: focal cerebral ischemia in rats; assay: Focal cerebral ischemia in rats by occlusion of middle cerebral artery (MCA); type: in vivo; details: 20 mg/kg p.o.
# Protocol: The focal ischemia rat model by occlusion of middle cerebral artery (MCA) was used to determine the protective effects of the compounds on focal cerebral ischemia. The infarct size after focal cerebral ischemia and the weight percentage of cerebral hemisphere were calculated to evaluate the compounds' effects on focal cerebral ischemia.
smiles,measurement,setting,value
"O=C(CN1CCN(CC(=O)c2ccccc2)CC1)NCc1ccccc1 [IV-23, N^1-phenacyl-N^4-[2-(benzylamino)-2-oxo-ethyl] piperazine]",LD50,"Acute toxicity; iv, i.v.",133 mg/kg
same,LD50,"Acute toxicity; po, p.o.",856 mg/kg
same,The neurological deficit score 24 h,[1]; Low-dose (5 mg/kg),8.1 ± 2.0
same,The neurological deficit score After the operation,[1]; Low-dose (5 mg/kg),9.7 ± 0.5
same,The percentage of infarction (%),[1]; Low-dose (5 mg/kg),20.8 ± 8.8 %
same,The weight of infarct area,[1]; Low-dose (5 mg/kg),0.15 ± 0.06 g
same,The neurological deficit score 24 h,[1]; middle-dose (10 mg/kg),5.6 ± 2.7
same,The neurological deficit score After the operation,[1]; middle-dose (10 mg/kg),9.6 ± 0.5
same,reduce the volume (of cerebral infarction) by,"[2]; 5 mg/kg, after 3 hours of ischemia",46.3%
same,Percent of volume (Means ± SEM),[2]; 2.5 mg/kg,15.42 ± 1.71%
same,Percent of volume (Means ± SEM),[2]; 5 mg/kg,12.90 ± 1.11%
same,Percent of infarct (%) (Means ± SEM),"[2]; 5 mg/kg, time of occlusion 1 hr",1.31 ± 0.50%
same,Percent of infarct (%) (Means ± SEM),"[2]; 5 mg/kg, time of occlusion 3 hr",8.57 ± 1.42%
same,Percent of infarct (%) (Means ± SEM),"[2]; 5 mg/kg, time of occlusion 6 hr",12.90 ± 1.11%
same,Percent of volume (Means ± SEM),[2]; 10 mg/kg,14.92 ± 1.40%
same,rodent microkernel experiment,rodent,negative
same,percentage of infarction lowered by,"[3]; compared with vehicle (saline), 24 hours after operation",52%
same,Necrotic percent (%),"[3]; rats, 2 mg/kg",11 ± 3***^ΔΔΔ %
same,Score of praxiology After operation,"[3]; rats, 2 mg/kg",9.6 ± 0.5
same,Weight of necrotic area (g),"[3]; rats, 2 mg/kg",0.08 ± 0.02***^ΔΔΔ g
same,Score of praxiology 24 h,"[3]; rats, 2 mg/kg, 24 h",5.4 ± 1.9***^Δ
same,The neurological deficit score 24 h,[4]; High-dose (20 mg/kg),6.7 ± 2.6
same,The neurological deficit score After the operation,[4]; High-dose (20 mg/kg),9.7 ± 0.5
same,The percentage of infarction (%),[4]; High-dose (20 mg/kg),14.2 ± 6.8 %
same,The weight of infarct area,[4]; High-dose (20 mg/kg),0.11 ± 0.05 g
same,The percentage of infarction (%),[4]; middle-dose (10 mg/kg),13.4 ± 8.4 %
same,The weight of infarct area,[4]; middle-dose (10 mg/kg),0.10 ± 0.06 g
same,IC50,NMDA receptor [5],562.7 ± 1.1 µM
same,chromosome aberration trial,mammalian cultural cell,negative
same,antagonism % (restrain rate of contraction of preparations),NMDA receptor [6],40%
same,Average survival time (min)(means ± S.E.M.),cerebral anoxia in mice; 10 mg/kg sc,16.46 ± 0.89 min
same,Average survival time (min)(means ± S.E.M.),cerebral anoxia in mice; 20 mg/kg sc,17.11 ± 0.53 min
same,Average survival time (min)(means ± S.E.M.),cerebral anoxia in mice; 40 mg/kg sc,19.26 ± 0.91 min
same,Average survival time (min)(means ± S.E.M.),cerebral anoxia in mice; 80 mg/kg sc,20.04 ± 1.56 min
same,ED50,"cerebral anoxia in mice; Mus musculus, sc, survival time in anoxic anoxia",6.2 mg/kg
same,Time for electroencephalogram to disappear(S),[7]; High-dose (20 mg/kg ip),566.3 ± 430.3^*Δ S
same,Time for electroencephalogram to recover (S),[7]; High-dose (20 mg/kg ip),70.3 ± 20.1^***ΔΔΔ S
same,Time for righting reflex to recover (S),[7]; High-dose (20 mg/kg ip),147.0 ± 123.1^*ΔΔΔ S
same,Time for electroencephalogram to disappear(S),[7]; Low-dose (5 mg/kg ip),275.5 ± 338.1^*Δ S
same,Time for electroencephalogram to recover (S),[7]; Low-dose (5 mg/kg ip),184.6 ± 214.1^***ΔΔΔ S
same,Time for righting reflex to recover (S),[7]; Low-dose (5 mg/kg ip),550.0 ± 282.5^*ΔΔΔ S
same,Time for electroencephalogram to disappear(S),[7]; Middle-dose (10 mg/kg ip),557.1 ± 639.4^*Δ S
same,Time for electroencephalogram to recover (S),[7]; Middle-dose (10 mg/kg ip),334.3 ± 674.3^***ΔΔΔ S
same,Time for righting reflex to recover (S),[7]; Middle-dose (10 mg/kg ip),822.8 ± 741.9^*ΔΔ S
same,LDH activities (U/g protein) (mean ± SEM),[8]; Concentration 10,1.86 ± 0.20 U/g protein
same,Protective rate (%),[8]; Concentration 10,0%
same,LDH activities (U/g protein) (mean ± SEM),[8]; Concentration 50,1.23 ± 0.14 U/g protein
same,Protective rate (%),[8]; Concentration 50,48.1%
same,LDH activities (U/g protein) (mean ± SEM),[8]; Concentration 100,1.05 ± 0.16 U/g protein
same,Protective rate (%),[8]; Concentration 100,65.1%
same,LDH activities (U/g protein) (mean ± SEM),[8]; Concentration 200,0.79 ± 0.19 U/g protein
same,Protective rate (%),[8]; Concentration 200,89.6%
same,Ames test,Ames test,negative
same,inhibition of platelet aggregation induced by ADP,[9],did inhibit
same,Infarct volume,[10],0.057 ± 0.012 g
same,Neurological deficit After operation,[10],9.4 ± 1.5
